# Marks after values point to notes of the source that are not given here.
# How the values were obtained:
# [1] = Pharmacokinetics assay, rat; assay type: in vivo, Sprague-Dawley (SD) rats; settings: plasma, Sprague-Dawley Rat
# Text: (§1) Results are shown in FIG. 1A (IV administration) and FIG. 1B (oral administration), and in Table 2. […] Smaller Vdss in monkeys is correlated with higher plasma protein binding.
# [2] = Metabolism and excretion of radiolabeled (14C) compound; assay type: in vivo; settings: SD rats, bile duct intact or cannulated, orally 5 mg/kg or intravenously 2 mg/kg
# Procedure: Blood, bile, feces, and urine samples were collected from each rat for up to 168 hours.
# [3] = test system: liver gene expression (lipid metabolism and fatty acid transport genes); assay: Rat CDHFD+NaNO2 NASH model: liver whole transcriptome RNAseq (DEGs); assay type: in vivo, male Wistar rats; settings: Compound 2 25 mg/kg, Compound 1 3 mg/kg
# Procedure: Animal handling: After arrival, the rats were left for a 2-week acclimation period, during which they were accustomed to the animal facility staff and trained on the procedure of oral gavage. […] Rats were then treated with test compounds for an additional 8 weeks while on CDHFD. […] Final Sacrifice: Half of the animals of each treatment group were terminated on day 84. The other half of the animals in each group were terminated on the following day, day 85. On the day of sacrifice the animals were fasted for 2 hours and received a final treatment with the respective test substance. After the final compound treatment, the animals had no more access to food until sacrifice. At 4 hours after the last administration all animals were sacrificed and livers were sampled for further analysis. Sampling and analysis: Small liver pieces were harvested into RNAlater (Thermo Fisher Scientific Dreieich Germany) and stored at −20° C. prior to RNA sequencing (RNAseq) at MedGenome Inc. RNAseq analysis was performed on liver tissue by Illumina sequencing using standard methodologies. […] Alignment was performed using STAR (v2.7.3a) aligner and reads mapping to ribosomal and mitochondrial genome were removed prior to alignment. Raw read counts were estimated using HTSeq (v0.11.1) and normalized using DESeq2 (v2.22.2). Differentially expressed genes (DEGs) were determined using DESeq2 (R Bioconductor package). […]
# [4] = test system: dog hepatocytes; assay: In vitro metabolic stability in cryopreserved hepatocytes (dog); assay type: in vitro ADME; settings: Beagle Dog
# Procedure: (§2) In vitro half-life values were determined and scaled to predict hepatic clearance (CLpred) and hepatic extraction using the well-stirred liver model with no correction for plasma protein as described in Obach et al., The Prediction of Human Pharmacokinetic Parameters from Preclinical and In Vitro Metabolism Data, J. of Pharmacology and Experimental Therapeutics, vol. 283, no. 1, pp. 46-58 (1997).
# [5] = Clinical study, First Study (14 days, healthy volunteers); assay type: in vivo; settings: healthy human volunteers, oral daily 5, 75, 200 or 400 mg for 14 days
# [6] = test system: mouse model of NASH; assay: Mouse model of NASH (high fat diet + CCl4); assay type: in vivo, C57/BL6J mice
# Procedure: Hematoxylin & Eosin (H&E) and Sirius Red histological staining of liver tissue was used to quantitate NAFLD activity score (NAS), steatosis, ballooning, inflammation and fibrosis. […] Gene expression of RNA was analyzed by RT-qPCR and RNAseq.
# NAS is calculated based upon liver steatosis, inflammation, and ballooning and was determined by analysis of liver tissue histology using H&E stain. […] Hepatocellular ballooning is a form of liver cell injury associated with cell swelling and is also measured by H&E stained liver sections. The ballooning score is calculated as follows: 0-no hepatocyte ballooning; 1-few ballooning hepatocytes; 2-many hepatocytes with prominent ballooning.
# Liver fibrosis was quantified by histological analysis of the percentage of Sirius Red-positive liver sections. […] Liver triglycerides were measured from liver tissue using a biochemical analyzer (Hitachi-700).
# [7] = Pharmacokinetics assay, monkey; assay type: in vivo, cynomolgus monkeys; settings: plasma, iv, Cynomolgus Monkey, intravenously 0.3 mg/kg
# Text: as §1
# [8] = test system: mouse hepatocytes; assay: In vitro metabolic stability in cryopreserved hepatocytes (mouse); assay type: in vitro ADME
# Procedure: as §2
# [9] = molecular target: T1, plasma SSAO (Homo sapiens, UniProt Q16853); assay: Multiple once daily dose study: plasma amine oxidase activity and methylamine; assay type: in vivo
# T1 construct: from tissue; host or cells: plasma of healthy participants
# T1 sequence (Q16853 27-763 limits assumed): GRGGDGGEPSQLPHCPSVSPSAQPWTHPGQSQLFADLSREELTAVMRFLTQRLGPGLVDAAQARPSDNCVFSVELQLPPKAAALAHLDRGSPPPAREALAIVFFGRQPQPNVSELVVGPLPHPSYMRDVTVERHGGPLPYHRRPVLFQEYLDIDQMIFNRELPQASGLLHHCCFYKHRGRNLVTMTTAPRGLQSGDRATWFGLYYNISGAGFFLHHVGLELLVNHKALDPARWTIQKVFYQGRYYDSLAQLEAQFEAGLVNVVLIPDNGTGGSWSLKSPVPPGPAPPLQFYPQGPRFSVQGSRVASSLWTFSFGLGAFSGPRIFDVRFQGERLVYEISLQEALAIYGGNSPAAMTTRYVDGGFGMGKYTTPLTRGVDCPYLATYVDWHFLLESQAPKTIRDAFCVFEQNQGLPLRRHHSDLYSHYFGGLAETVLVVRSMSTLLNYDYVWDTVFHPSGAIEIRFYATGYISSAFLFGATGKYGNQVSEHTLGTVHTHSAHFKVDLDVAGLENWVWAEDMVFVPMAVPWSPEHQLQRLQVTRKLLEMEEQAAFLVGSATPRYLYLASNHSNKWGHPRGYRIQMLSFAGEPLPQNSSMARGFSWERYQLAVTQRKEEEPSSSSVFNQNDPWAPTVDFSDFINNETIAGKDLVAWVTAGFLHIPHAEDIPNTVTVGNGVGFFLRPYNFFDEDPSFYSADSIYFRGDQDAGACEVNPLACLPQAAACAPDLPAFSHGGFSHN
# Procedure: 3 groups of 8 healthy participants were randomized to receive multiple once daily (QD) doses of Compound 2 or matching placebo in a 3:1 ratio for 7 days (1 mg and 4 mg) or 14 days (10 mg). Plasma levels of Compound 2 and PD biomarkers (plasma amine oxidase activity and methylamine levels) were determined at pre-dose and various timepoints post-dose. Safety was assessed for up to 14 days after last dose.
# [10] = Single-ascending dose clinical trial: plasma PK and safety
# Procedure: SSAO inhibition was determined by measuring relative reductions in plasma H2O2 generation after addition of an exogenous substrate (benzylamine). […] Safety was assessed for 7 (±3) days after dosing.
# Plasma PK parameters were determined by non-compartmental analysis. […] Percent change in total amine oxidase activity was determined relative to the corresponding pre-dose (baseline) samples.
# [11] = NASH mice, 10, 30, 100 mg/kg, vs untreated NASH mice
smiles,measurement,setting,value
Cn1cc(C(=O)O)c2ccc(N3CCC(OCc4c(-c5c(Cl)cccc5Cl)noc4C4CC4)CC3)cc21 [Compound 1],clearance,"[1]; iv, intravenously 1 mg/kg",42.5 mL/min/kg
same,half-life,"[1]; iv, intravenously 1 mg/kg, read-out: IV Terminal t1/2 (converted)",2.45 h
same,Vd,"[1]; iv, intravenously 1 mg/kg, read-out: Vdss",1.31 L/kg
same,bioavailability,"[1]; po, orally 10 mg/kg",21%
same,metabolism and major elimination pathway,[2],metabolized into an acyl glucuronide metabolite prior to biliary excretion
same,Ppargc1a differential gene expression relative to vehicle control,[3],0.25 log2-fold change
same,Hepatic Extraction,[4],71.0 ± 2.49%
same,In vitro Metabolic CLpred,[4]; well-stirred liver model,22 ± 0.83 mL/min/kg
same,incidences of pruritus,[5],no incidences of pruritus were observed
same,CYP7A1 expression (CPM) Relative to Vehicle,"[6]; NASH mice liver, 30 mg/kg",0.02
same,CYP8B1 expression (CPM) Relative to Vehicle,"[6]; NASH mice liver, 30 mg/kg",0.007
same,liver triglycerides,"[6]; NASH mice, 100 mg/kg",statistically significant reduced triglyceride levels
same,serum triglyceride concentration,"[6]; NASH mice, 100 mg/kg",statically significant reduction
same,serum ALT level,"[6]; NASH mice, 10, 30, 100 mg/kg",reduced
same,serum AST level,"[6]; NASH mice, 10, 30, 100 mg/kg",reduced
same,ballooning (score),[6]; [11],significantly reduced
same,inflammation (score),[6]; [11],significantly reduced
same,steatosis (score),[6]; [11],significantly reduced
same,serum total cholesterol level,"[6]; NASH mice, 10, 30, and 100 mg/kg",statistically significant reduction
same,NAFLD Activity Score (NAS),"[6]; NASH mice, 10, 30, or 100 mg/kg daily oral, 28 days, vs untreated NASH mice",significantly lower NAS score
same,"collagen, type 1, alpha 1 expression in the liver","[6]; NASH mice, 10, 30, or 100 mg/kg, vs control NASH mice",decreased
same,Liver fibrosis (Sirius Red-positive area),"[6]; NASH mice, 10, 30 or 100 mg/kg, vs untreated NASH control",statistically significant reduced fibrosis
same,clearance,[7],5 mL/min/kg
same,half-life,[7]; read-out: IV Terminal t1/2 (converted),1.32 h
same,Vd,[7]; read-out: Vdss,0.6 L/kg
same,Hepatic Extraction,[8],80.7 ± 1.02%
same,In vitro Metabolic CLpred,[8]; well-stirred liver model,72.7 ± 1 mL/min/kg
COC1CCN(c2ncc(OC/C(=C/F)CN)cn2)CC1 [Compound 2],duration of continued suppression of plasma SSAO activity after last dose,"[9]; 10 mg cohort (QD, 14 days)",up to 2 weeks
same,inhibition of plasma SSAO activity,"[9]; Day 1, all dose cohorts",Near complete inhibition
same,Plasma methylamine levels,"[9]; QD 1, 4, 10 mg",increased in a greater than dose proportional manner
same,Ppargc1a differential gene expression relative to vehicle control,[3],0.51* log2-fold change
same,plasma PK exposure increase with dose,"[10]; between the 3 and 10 mg dose levels, single oral dose",greater than dose proportional
same,tolerability,"[10]; doses 1, 3, 6, and 10 mg, single dose",well tolerated
same,adverse events or laboratory abnormalities,"[10]; healthy humans, single oral dose 1-10 mg",No clinically relevant adverse events or laboratory abnormalities were reported
same,half-life,"[10]; male, human, plasma, po, 10 mg",1 to 3 h
